For one data set, the target named is T1, CYP2b1 (Rattus norvegicus, UniProt P00176).
T1 sequence (P00176 1-491): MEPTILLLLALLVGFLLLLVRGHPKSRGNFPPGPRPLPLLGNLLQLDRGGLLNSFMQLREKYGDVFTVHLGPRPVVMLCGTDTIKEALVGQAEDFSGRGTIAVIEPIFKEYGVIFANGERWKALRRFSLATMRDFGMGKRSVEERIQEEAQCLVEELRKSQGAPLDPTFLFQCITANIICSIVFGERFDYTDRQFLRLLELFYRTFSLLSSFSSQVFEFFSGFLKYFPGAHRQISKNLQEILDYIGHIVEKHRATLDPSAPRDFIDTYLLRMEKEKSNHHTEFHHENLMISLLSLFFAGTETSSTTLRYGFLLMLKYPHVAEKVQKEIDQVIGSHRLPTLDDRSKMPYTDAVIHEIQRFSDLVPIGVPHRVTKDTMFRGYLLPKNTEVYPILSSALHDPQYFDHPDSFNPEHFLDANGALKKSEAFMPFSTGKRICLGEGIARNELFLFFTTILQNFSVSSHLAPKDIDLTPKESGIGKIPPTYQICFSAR
In words: RLM incubation: metabolic clearance rate of bupropion (CYP2b1). As to conditions: RLM 0.5 mg/mL, 30 min 37°C, inhibitor added, blank control 7.92 ± 0.60, n = 3. The protocol: (§1) The effect of the Zhicaowu–Hezi combination on CYP450 enzymes in RLM was evaluated by assessing the metabolic clearance rates of theophylline, metoprolol, bupropion, mephenytoin (CYP2c13), chlorzoxazone, testosterone, and diclofenac.
(§2) On day 15, the rats were humanely euthanized, and liver tissues were excised for microsomal preparation. […] Livers from each group were repeatedly washed with ice-cold phosphate buffered saline (PBS). […] Subsequently, they were blotted dry with filter paper, weighed, and homogenized by adding 4 mL of ice-cold PBS per gram of liver tissue. The mixture was homogenized in an ice bath. The liver homogenate was subjected to centrifugation at 10,000 RPM for 20 min at 4°C. The resulting supernatant was then combined with an ice-cold 88-mmol/L CaCl2 solution at a 1:1 ratio, and the mixture was homogenized in an ice bath for 5 min. The resulting solution was then centrifuged at 25,000 × g for 30 min at 4°C. The supernatant was discarded and the precipitate was repeatedly resuspended in PBS–20% glycerol buffer. The precipitate was then stored in a separate bottle at −80°C for backup. The protein concentration of the prepared RLM was determined using a bicinchoninic acid protein assay kit.
(§3) Preincubation was conducted for 5 min in a water bath at 37°C, after which NADPH (1 mmol/L) was added, and incubation continued for 30 min at 37°C. Once the incubation period elapsed, the reaction was terminated by the addition of an ice-cold IS-containing acetonitrile solution. The samples were vortexed for 2 min and centrifuged at 15,000 RPM for 10 min. The resulting supernatant was filtered through a 0.22-μm organic microporous membrane, and 20 μL of the filtered solution was injected into the HPLC assay. To prevent the organic solvents from inducing or inhibiting the enzyme, the volume fraction of organic solvents in the entire incubation system was maintained at 1%. […] The inhibitor group was added with corresponding inhibitor, while all other procedures remained identical.

The next data set has as its target T2, CYP3a1 (Rattus norvegicus, UniProt P04800).
T2 sequence (P04800 1-504): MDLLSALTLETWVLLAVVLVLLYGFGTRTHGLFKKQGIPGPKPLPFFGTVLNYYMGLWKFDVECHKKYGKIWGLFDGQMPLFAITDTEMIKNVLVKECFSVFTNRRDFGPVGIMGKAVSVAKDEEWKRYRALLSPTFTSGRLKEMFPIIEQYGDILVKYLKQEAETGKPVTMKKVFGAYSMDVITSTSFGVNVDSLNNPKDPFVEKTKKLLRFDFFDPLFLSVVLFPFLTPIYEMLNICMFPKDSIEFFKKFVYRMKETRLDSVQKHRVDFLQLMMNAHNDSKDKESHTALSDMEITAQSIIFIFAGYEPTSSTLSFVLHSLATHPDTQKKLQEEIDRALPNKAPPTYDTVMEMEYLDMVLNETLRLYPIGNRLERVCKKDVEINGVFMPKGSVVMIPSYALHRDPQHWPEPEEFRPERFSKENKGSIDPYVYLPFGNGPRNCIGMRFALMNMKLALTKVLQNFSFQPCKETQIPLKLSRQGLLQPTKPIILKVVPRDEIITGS
As for the experimental part:
as §1, §2, §3

The target of another data set is T3, CYP2d2 (Rattus norvegicus, UniProt P10634).
T3 sequence (P10634 1-500): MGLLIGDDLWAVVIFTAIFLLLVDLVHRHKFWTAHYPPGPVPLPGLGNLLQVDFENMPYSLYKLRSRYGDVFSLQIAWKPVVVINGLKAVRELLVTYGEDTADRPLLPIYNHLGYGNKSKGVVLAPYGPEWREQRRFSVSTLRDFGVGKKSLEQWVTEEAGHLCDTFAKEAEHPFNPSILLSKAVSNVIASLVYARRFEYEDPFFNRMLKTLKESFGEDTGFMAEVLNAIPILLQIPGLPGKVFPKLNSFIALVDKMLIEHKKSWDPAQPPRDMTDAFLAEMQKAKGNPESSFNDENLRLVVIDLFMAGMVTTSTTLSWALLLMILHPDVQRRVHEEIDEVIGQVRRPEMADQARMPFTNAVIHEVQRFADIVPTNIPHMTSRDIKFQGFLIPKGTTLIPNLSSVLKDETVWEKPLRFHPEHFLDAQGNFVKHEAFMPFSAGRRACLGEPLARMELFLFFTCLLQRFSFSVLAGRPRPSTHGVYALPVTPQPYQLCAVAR
As for the experimental part: as §1, §2, §3

The target of a further data set is T4, CYP1a2 (Rattus norvegicus, UniProt P04799).
T4 sequence (P04799 1-513): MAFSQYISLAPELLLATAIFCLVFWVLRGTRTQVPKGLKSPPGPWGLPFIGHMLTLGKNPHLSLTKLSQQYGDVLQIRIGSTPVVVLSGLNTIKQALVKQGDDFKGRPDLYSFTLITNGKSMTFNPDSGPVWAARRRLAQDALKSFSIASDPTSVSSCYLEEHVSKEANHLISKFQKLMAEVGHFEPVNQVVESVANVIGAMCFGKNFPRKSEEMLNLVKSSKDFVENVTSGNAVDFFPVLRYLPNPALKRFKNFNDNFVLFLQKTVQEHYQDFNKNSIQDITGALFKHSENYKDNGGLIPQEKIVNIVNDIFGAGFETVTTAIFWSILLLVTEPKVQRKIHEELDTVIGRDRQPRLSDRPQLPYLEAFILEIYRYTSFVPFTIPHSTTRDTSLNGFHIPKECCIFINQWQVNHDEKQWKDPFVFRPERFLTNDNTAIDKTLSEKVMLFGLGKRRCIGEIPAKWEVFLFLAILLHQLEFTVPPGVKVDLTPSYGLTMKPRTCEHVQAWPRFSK
As to conditions: microsomes. The protocol:
as §1, §2, §3

The target in a further data set is T5, CYP2c13 (Rattus norvegicus, UniProt P20814).
T5 sequence (P20814 1-490): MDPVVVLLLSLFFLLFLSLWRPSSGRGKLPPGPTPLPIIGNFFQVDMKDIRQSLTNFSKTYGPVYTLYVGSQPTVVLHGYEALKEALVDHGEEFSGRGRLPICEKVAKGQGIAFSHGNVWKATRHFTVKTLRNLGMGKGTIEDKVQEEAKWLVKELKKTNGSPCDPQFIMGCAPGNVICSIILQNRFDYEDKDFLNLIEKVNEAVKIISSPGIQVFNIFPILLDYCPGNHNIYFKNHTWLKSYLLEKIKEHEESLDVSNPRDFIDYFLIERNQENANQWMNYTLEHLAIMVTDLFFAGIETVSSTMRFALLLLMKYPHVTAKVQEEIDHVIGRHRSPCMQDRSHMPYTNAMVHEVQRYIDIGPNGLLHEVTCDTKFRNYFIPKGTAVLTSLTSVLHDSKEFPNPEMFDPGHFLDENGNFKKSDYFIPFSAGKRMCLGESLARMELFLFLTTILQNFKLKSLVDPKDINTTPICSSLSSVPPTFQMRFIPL
In words: RLM incubation: metabolic clearance rate of mephenytoin (CYP2c13). To be noted: RLM 0.5 mg/mL, 30 min 37°C, inhibitor added, blank control 15.97 ± 0.68, n = 3. The protocol:
as §1, §2, §3

For data set [1] the following is noted: ref Jin et al., 2024, cited from earlier work.
A further data set has as its target CYP2e1 (Rattus norvegicus, UniProt P05182). In words: RLM incubation: metabolic clearance rate of chlorzoxazone (CYP2e1). As to conditions: RLM 0.5 mg/mL, 30 min 37°C, inhibitor added, blank control 15.80 ± 0.34, n = 3. As for the experimental part:
as §1, §2
Preincubation was conducted for 5 min in a water bath at 37°C, after which NADPH (1 mmol/L) was added, and incubation continued for 30 min at 37°C. […]

The next data set addresses T6, CYP2c11 (Rattus norvegicus, UniProt P08683).
T6 sequence (P08683 1-500): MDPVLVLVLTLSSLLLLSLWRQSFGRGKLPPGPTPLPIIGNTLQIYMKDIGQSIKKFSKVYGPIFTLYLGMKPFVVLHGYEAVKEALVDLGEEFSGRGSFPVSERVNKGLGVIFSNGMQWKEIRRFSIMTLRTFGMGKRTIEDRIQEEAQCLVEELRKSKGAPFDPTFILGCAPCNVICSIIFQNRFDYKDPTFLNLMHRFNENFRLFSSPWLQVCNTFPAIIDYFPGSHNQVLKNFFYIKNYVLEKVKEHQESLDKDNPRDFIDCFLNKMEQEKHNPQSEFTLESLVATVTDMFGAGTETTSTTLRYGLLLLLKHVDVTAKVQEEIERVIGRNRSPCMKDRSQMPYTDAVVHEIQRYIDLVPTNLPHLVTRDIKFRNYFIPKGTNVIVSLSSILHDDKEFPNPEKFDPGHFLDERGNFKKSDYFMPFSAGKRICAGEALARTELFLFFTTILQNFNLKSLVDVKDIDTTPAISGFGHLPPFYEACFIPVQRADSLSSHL
As to conditions: RLM 0.5 mg/mL, 30 min 37°C, inhibitor added, probe diclofenac; blank control 21.12 ± 3.80; n = 3. As for the experimental part:
as §1, §2, §3

Where two headings read alike, the source gives them in different places.

The values below come from PMC12301304 (Frontiers in Pharmacology, 2025).

CYP2e1, sequence (P05182 whole entry): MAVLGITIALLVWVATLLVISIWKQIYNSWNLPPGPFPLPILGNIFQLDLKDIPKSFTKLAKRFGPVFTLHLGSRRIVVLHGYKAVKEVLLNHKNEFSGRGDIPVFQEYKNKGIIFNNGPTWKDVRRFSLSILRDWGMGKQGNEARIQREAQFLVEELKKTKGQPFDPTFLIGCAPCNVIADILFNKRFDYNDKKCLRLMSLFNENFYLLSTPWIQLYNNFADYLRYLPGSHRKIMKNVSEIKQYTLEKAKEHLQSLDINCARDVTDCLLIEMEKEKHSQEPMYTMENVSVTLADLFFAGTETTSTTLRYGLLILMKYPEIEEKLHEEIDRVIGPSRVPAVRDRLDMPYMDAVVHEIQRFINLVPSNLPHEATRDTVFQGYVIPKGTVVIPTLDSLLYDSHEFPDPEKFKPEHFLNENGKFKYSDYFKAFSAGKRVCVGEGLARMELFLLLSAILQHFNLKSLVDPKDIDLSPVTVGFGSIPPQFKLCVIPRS

Take `CC(=O)N1CCN(c2ccc(OCC3COC(Cn4ccnc4)(c4ccc(Cl)cc4Cl)O3)cc2)CC1` (stereo not shown) [Ketoconazole, ketoconazole]: the “CYP2b1(%) metabolic clearance rate of probe drug” value at CYP2b1 came to 7.11 ± 0.17%. Moreover, on CYP3a1, the “CYP3a1 (%) metabolic clearance rate of probe drug” value is 5.45 ± 2.49 %. Further, the “CYP2d2 (%) metabolic clearance rate of probe drug” value on CYP2d2 was determined as 12.73 ± 1.11%. The “CYP1a2 (%) metabolic clearance rate of probe drug” value on CYP1a2 came out at 36.04 ± 1.71%. Further, on CYP2c13, the “CYP2c13(%) metabolic clearance rate of probe drug” value was determined as 17.26 ± 1.08%.

`CC1(C)[C@@H](O[C@H]2O[C@H](C(=O)O)[C@@H](O)[C@H](O)[C@H]2O[C@@H]2O[C@H](C(=O)O)[C@@H](O)[C@H](O)[C@H]2O)CC[C@]2(C)[C@H]3C(=O)C=C4[C@@H]5C[C@@](C)(C(=O)O)CC[C@]5(C)CC[C@@]4(C)[C@]3(C)CC[C@@H]12` [glycyrrhizin]: the “reduction of systemic exposure to aconitine” value in data set [1] (glycyrrhizin by intravenous injection) is given as 33%; in data set [1] (glycyrrhizin by oral gavage) it was 27%.

For the compound `Nc1ccc(S(=O)(=O)Nc2ccnn2-c2ccccc2)cc1` [Sulfaphenazolum], the “CYP2e1 (%) metabolic clearance rate of probe drug” value on CYP2e1 stood at 16.11 ± 0.18%. For the same compound, the “CYP2b1(%) metabolic clearance rate of probe drug” value on CYP2b1 is 7.74 ± 0.98%. Also, the “CYP2c11(%) metabolic clearance rate of probe drug” value at CYP2c11 is given as 6.16 ± 0.65 %. Further, at CYP3a1 (RLM 0.5 mg/mL, 30 min 37°C, inhibitor added, probe testosterone, blank control 25.04 ± 1.93, n = 3), the “CYP3a1 (%) metabolic clearance rate of probe drug” value is 25.69 ± 1.69%. Further, the “CYP2d2 (%) metabolic clearance rate of probe drug” value on CYP2d2 (RLM 0.5 mg/mL, 30 min 37°C, inhibitor added, probe metoprolol, blank control […] ± 2.12, n = 3) came out at 13.50 ± 0.30%. Besides, the “CYP2c13(%) metabolic clearance rate of probe drug” value on CYP2c13 is recorded as 16.47 ± 1.34%.
